For one experiment, the system named is H146 cells. The experiment in a line: H146 cell viability, MTT assay. The experiment is classed as cell-based. Particulars: Homo sapiens, NCI-H146, 48 h, 48 h exposure. How it is done:
MTT colorimetric assay is based on the mitochondrial reduction of tetrazolium salt by living cells. The viable cell number is proportional to the production of formazan salts, which can be read spectrophotometrically at 540 nm.
MOLT-4 and H146 cells were purchased from ATCC and cultivated in RPMI 1640 supplemented with 10% heat inactivated fetal bovine serum, penicillin (100 IU/ml), streptomycin (100 μg/ml) and L-glutamine (2 mM). Cells were cultured at 37° C. in a humidified atmosphere containing 5% CO2. Cells were seeded in 96 microwell plates (150 μL per well) and exposed to the compounds for 48 h (3.16 fold serially diluted; 9 concentrations each, triplicates). At the end of incubation time, 15 μL of MTT solution (5 mg/ml) were added per well and the cells were incubated for another 4 h. Then, 100 μL of 10% Sodium Dodecyl Sulfate (SDS)/HCl 10 mM were added per well and the plate was incubated overnight, before measurement of optical density at 540 nm. IC50s were calculated using standard four-parametric curve fitting.
In general terms: Tetrazolium assays rely on reduction of a dye to a coloured formazan, in cell work by metabolically active cells.

The next experiment addresses BCLXL (Homo sapiens, UniProt Q07817, V10N/V9A). The experiment in a line: Fluorescence polarisation assay (PUMA-based probe displacement). Also: 20 nM protein, 10 nM fluorescent probe. The class given is binding. How it is done:
Fluorescence polarization measures the rotation of a fluorescing species in solution, the larger the molecule the more polarized the fluorescence emission.
[[…]] (GST UniProtKB® primary accession number P08515 and BCLXL UniProtKB® primary accession number Q07817-1),
resulting in an increase in anisotropy. If a compound is added which competitively binds to the same site as the probe, thereby releasing it, anisotropy decreases due to the increased amount of free probe.
An 11-point serial dilution of each compound was prepared in DMSO, the final buffer conditions were 10 mM 4-(2-hydroxyethyl)-1-piperazineethanesulfonic acid [HEPES], 150 mM NaCl, 0.05% Tween 20, pH 7.4 and 5% DMSO. The final protein concentration in the assay was 20 nM with the fluorescent probe present at 10 nM. The experiments were incubated for 2 hours at 23° C. before fluorescence polarization was measured on a Biotek SynergyNeo plate reader (Excitation 485 nm, emission 525 nm, parallel and perpendicular reads). […] The KI values were determined from the IC50 values according to Cer et al, Nucleic Acids Res, 2009, Jul. 1: 37(WebServer issue): W441-W445.
A general note: Fluorescence polarisation rises when a labelled molecule tumbles more slowly, as on binding a larger partner.

Sequence of BCLXL (Q07817 with tags, fused parts or gaps V9A/V10N): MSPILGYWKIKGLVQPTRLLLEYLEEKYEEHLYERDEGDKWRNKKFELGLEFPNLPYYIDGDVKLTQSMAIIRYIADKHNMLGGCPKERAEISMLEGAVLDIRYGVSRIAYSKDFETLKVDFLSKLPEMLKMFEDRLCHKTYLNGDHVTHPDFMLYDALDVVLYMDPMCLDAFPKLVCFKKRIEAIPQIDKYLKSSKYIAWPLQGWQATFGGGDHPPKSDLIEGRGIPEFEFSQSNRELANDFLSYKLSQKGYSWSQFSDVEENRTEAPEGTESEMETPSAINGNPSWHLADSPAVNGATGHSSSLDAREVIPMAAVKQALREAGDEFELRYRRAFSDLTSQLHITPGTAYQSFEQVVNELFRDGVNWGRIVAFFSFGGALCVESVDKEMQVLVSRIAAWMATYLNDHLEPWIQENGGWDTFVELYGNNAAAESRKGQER

The IC50 is the point on the concentration scale where inhibition reaches its midpoint. A low value points to higher potency. By Ki is commonly meant a measure of affinity in units of concentration, obtained from inhibition or displacement. For `Cc1c(Nc2cccc(C(=O)O)n2)nnc(Nc2nc3ccccc3s2)c1C` [Example 2, 6-({6-[(1,3-Benzothiazol-2-yl)amino]-4,5-dimethylpyridazin-3-yl}amino)pyridine-2-carboxylic acid], the midpoint of inhibition with H146 cells, the IC50, lay at 12500 nM. Moreover, the Ki at BCLXL came to 330 nM.

The compound `CC(C)c1cc(Nc2nc(C(=O)O)cs2)nnc1Nc1nc2ccccc2s1` [Example 5, 2-({6-[(1,3-Benzothiazol-2-yl)amino]-5-(propan-2-yl)pyridazin-3-yl}amino)-1,3-thiazole-4-carboxylic acid] gave a half-inhibitory concentration (IC50) in the experiment with H146 cells of 8210 nM. Also, on BCLXL, the Ki was 180 nM.

`CC(C)c1cc(Nc2nc3ccccc3s2)nnc1Nc1nc(C(=O)O)cs1` [Example 6, 2-({6-[(1,3-Benzothiazol-2-yl)amino]-4-(propan-2-yl)pyridazin-3-yl}amino)-1,3-thiazole-4-carboxylic acid]: in the experiment with H146 cells, the IC50 is > 44900 nM. Moreover, the Ki on BCLXL worked out at 490 nM. `Cc1c(Nc2nc3ccccc3s2)nnc(Nc2nc(C(=O)O)cs2)c1C(C)C` [Example 8, 2-({6-[(1,3-Benzothiazol-2-yl)amino]-5-methyl-4-(propan-2-yl)pyridazin-3-yl}amino)-1,3-thiazole-4-carboxylic acid] displayed an IC50 with H146 cells of 10500 nM. The Ki on BCLXL amounted to 87 nM. Consider `Cc1c(Nc2nc(C(=O)O)cs2)nnc(Nc2nc3ccccc3s2)c1C(C)C` [Example 10, 2-({6-[(1,3-Benzothiazol-2-yl)amino]-4-methyl-5-(propan-2-yl)pyridazin-3-yl}amino)-1,3-thiazole-4-carboxylic add], for which, in the experiment on H146 cells, half-maximal inhibition (IC50) was put at 8310 nM. Further, the inhibition constant Ki on BCLXL amounted to 410 nM. For `Cc1cc(N(C)c2nc(C(=O)O)c(C3CN(S(C)(=O)=O)C3)s2)nnc1Nc1nc2ccccc2s1` [Example 149, 2-({6-[(1,3-Benzothiazol-2-yl)amino]-5-methylpyridazin-3-yl}(methyl)amino)-5-(1-methanesulfonylazetidin-3-yl)-1,3-thiazole-4-carboxylic acid], the Ki on BCLXL came to 1300 nM. Take `Cc1cc(N(C)c2nc(C(=O)O)c(C3CN(CC(C)C)C3)s2)nnc1Nc1nc2ccccc2s1` [Example 156, 2-({6-[(1,3-Benzothiazol-2-yl)amino]-5-methylpyridazin-3-yl}(methyl)amino)-5-[1-(2-methylpropyl)azetidin-3-yl]-1,3-thiazole-4-carboxylic acid]: at BCLXL, the Ki amounted to 890 nM. As to `Cc1cc(N(C)c2nc(C(=O)O)c(C3CN(C)C3)s2)nnc1Nc1nc2ccccc2s1` [Example 157, 2-({6-[(1,3-Benzothiazol-2-yl)amino]-5-methylpyridazin-3-yl}(methyl)amino)-5-(1-methylazetidin-3-yl)-1,3-thiazole-4-carboxylic acid], the inhibitory constant (Ki) at BCLXL stood at 1200 nM. Still for that read-out and setting: then `Cc1cc(N(CCCC(=O)O)c2nc(C(=O)O)cs2)nnc1Nc1nc2ccccc2s1` [Example 158, 2-({6-[(1,3-Benzothiazol-2-yl)amino]-5-methylpyridazin-3-yl}(3-carboxypropyl)amino)-1,3-thiazole-4-carboxylic acid], with 43 nM; and `Cc1cc(N(C)c2nc(C(=O)O)c(C3CN(C(=O)NCc4ccccc4)C3)s2)nnc1Nc1nc2ccccc2s1` [Example 159, 2-({6-[(1,3-Benzothiazol-2-yl)amino]-5-methylpyridazin-3-yl}(methyl)amino)-5-[1-(benzylcarbamoyl)azetidin-3-yl]-1,3-thiazole-4-carboxylic acid], with 180 nM; and `CCNC(=O)N1CC(c2sc(N(C)c3cc(C)c(Nc4nc5ccccc5s4)nn3)nc2C(=O)O)C1` [Example 160, 2-({6-[(1,3-Benzothiazol-2-yl)amino]-5-methylpyridazin-3-yl}(methyl)amino)-5-[1-(ethylcarbamoyl)azetidin-3-yl]-1,3-thiazole-4-carboxylic acid], with 220 nM.
